Experimental data from patent publication US11549134B2, “Modified amadoriase and method for producing the same, agent for improving surfactant resistance of amadoriase and composition for measuring HbA1c using the same” (Kikkoman Corporation, priority 2013, dated 2023).

B1: CcFX: ketoamine oxidase derived from Curvularia clavata, SEQ ID NO: 37 (protein, listed as Curvularia clavata)
chain: MAPSRANTSVIVVGGGGTIGSSTALHLVRSGYTPSNITVLDTYPIPSAQSAGNDLNKIMGIRLRNKVDLQLSLEARQMWREDDLFKEYFHNTGRLDCAHGEEGLADLRQAYQALLDANAGLEETTEWLDSEDEILKKMPLLDREQIKGWKAVYSQDGGWLAAAKAINAIGEYLRAQGVKFGFGGAGSFKQPLLAEGVCIGVETVDGTRYYADKVVLAAGAWSPVLVDLEDQCVSKAWVYAHIQLTPEEAAEYKNVPVVYNGDVGFFFEPDEHGVIKVCDEFPGFTRFKQHQPYGAKAPKRISVPRSAAKHPTDTYPDASEKSIRKAIATFLPKFTEKELFNRHLCWCTDTADAALLMCEHPEWKNFVLATGDSGHTFKLLPNIGKHVVELLEGTLAEDLAHAWRWRPGTGDALKSRRAAPAKDLADMPGWKHDDVVKSKL

What was measured:
CFP-T7 [1] = assay: Surfactant resistance of amadoriase in presence of buffering agents; format: biochemical, genus Coniochaeta; conditions: 0.01% CTAC, purified CFP-T7
Experimental: In the above surfactant resistance measuring method, the residual activity of an amadoriase is measured by using various buffers in place of a 30 mM MES/21 mM Tris buffer solution. In this manner, the contribution of the buffer to the amadoriase residual activity can be evaluated. For example, in place of the 30 mM MES/21 mM Tris buffer solution (pH 6.5), e.g., a phosphate buffer solution (pH 7.0), a citrate buffer solution (pH 6.0), a HEPES buffer solution (pH 7.0) or an ACES buffer solution (pH 7.0) can be used. Other conditions and procedure can be the same as in the above surfactant resistance measuring method.
It was studied whether the surfactant resistance of an amadoriase is enhanced or not when a buffering agent other than a 30 mM MES/21 mM Tris buffering agent (pH 6.5) was used. Using CFP-T7 purified as described above as a sample, the final concentration of CTAC was set at 0.01% to evaluate the surfactant resistance of CFP-T7 according to the measurement method for surfactant resistance in Example 1 in the presence of any of various buffering agents, specifically a phosphate buffering agent containing phosphoric acid and potassium phosphate (pH 7.0), a citrate buffering agent containing citric acid and sodium citrate (pH 6.0), an MES buffering agent containing MES and it sodium salt (pH 7.0), an HEPES buffering agent containing HEPES and its sodium salt (pH 7.0), and an ACES buffering agent containing ACES and its sodium salt (pH 7.0), in place of the 30 mM MES/21 mM Tris buffering agent (pH 6.5).

PnFX = assay: Surfactant resistance of PnFX during addition of each stabilizer; format: biochemical, Phaeosphaeria nodorum; conditions: 300 mM HEPES (pH 7.0), 0.04% CTAC
Experimental: The same stabilizers as those described above were used as stabilizers; 300 mM HEPES (pH 7.0) was used as a buffering agent to prevent a change in pH when the stabilizers was each added; PnFX purified as described above was used as a sample; the final concentration of CTAC was set at 0.04%; and the surfactant resistance of PnFX was evaluated as described above.

CFP-T7 [2] = assay: Surfactant resistance of amadoriase during addition of each stabilizer (CFP-T7); format: biochemical, genus Coniochaeta; conditions: 500 mM HEPES (pH 7.0), 0.01% CTAC
Experimental: (§1) In the above surfactant resistance measuring method, various stabilizers are added and the residual activity of an amadoriase is measured in order to evaluate the effect of the stabilizers. […] The concentration sufficient to provide a buffer capacity to a solution refers to the concentration at which pH is maintained within a predetermined range (for example pH5 to 10, pH6 to 8) without having pH change due to other reagents added to the solution. A concentration insufficient to provide a buffer capacity to a solution refers to the concentration at which pH changes by addition of other reagents to the solution and pH falls outside a particular range. These concentrations vary depending upon the type and amount of other reagents to be added to a solution; however, a person skilled in the art can appropriately determine the concentration by conventional methods. Other conditions and procedure can be the same as in the above surfactant resistance measuring method.
(§2) It was studied whether or not the addition of any of various stabilizers enhanced the surfactant resistance of an amadoriase. Phosphoric acid, a tricarboxylic acid (e.g., citric acid), a dicarboxylic acid (e.g., malic acid, maleic acid, citraconic acid, malonic acid, glutaric acid, or tartaric acid), a monpcarboxylic acid (e.g., acetic acid), MES, MOPS, MOPSO, or ammonium sulfate was used as a stabilizer. As a Comparative Example, CHES was used. To prevent change in pH when adding the stabilizer, 500 mM HEPES (pH 7.0) was used as a buffer solution; CFP-T7 purified as described above was used as a sample; the final concentration of CTAC was set at 0.01%; and any of the stabilizers was further added to evaluate the surfactant resistance of CFP-T7 according to the measurement method for surfactant resistance in Example 1. Using a 500 mM HEPES (pH 7.0) buffering agent and CFP-D2 purified as described above as a sample, any of the stabilizers was further added, and the surfactant resistance of CFP-D2 was evaluated according to the measurement method for surfactant resistance in Example 1 although under more harsh surfactant treatment conditions in which the final concentration of CTAC was set at 0.08% and the treatment temperature at 37° C.

CFP-D2 = assay: Surfactant resistance of amadoriase during addition of each stabilizer (CFP-D2); format: biochemical, genus Coniochaeta; conditions: 500 mM HEPES (pH 7.0), 0.08% CTAC, 37°C
Experimental: as §1
as §2, with “To prevent change in pH when adding the stabilizer, 500 mM HEPES (pH 7.0) was used as a buffer solution; CFP-T7 purified as described above was used as a sample; the final concentration of CTAC was set at 0.01%; and any of the stabilizers was further added to evaluate the surfactant resistance of CFP-T7 according to the measurement method for surfactant resistance in Example 1.” left out

[3] = Surfactant resistance (residual activity) of CcFX variants, 0.01% CTAC; format: biochemical; conditions: 30°C, 5 minutes, 20 mM potassium phosphate buffer (pH 7.0), crude enzyme, Table 1-2
Experimental: An amadoriase crude enzyme solution or an amadoriase purified sample is diluted with a 30 mM MES/21 mM Tris buffer solution (pH6.5) so as to have a concentration of about 1.0 U/ml. To this, CTAC (for example, manufactured by Tokyo Kasei Kogyo Co., Ltd.) is added so as to obtain a final concentration 0.01% (w/v) or 0.04%. The resultant mixture is heated at 30° C. for 5 minutes. After heating, the mixture is diluted double with a 10 mM phosphate buffer (pH7.0) containing 0.15% BSA to prepare a sample. The enzyme activities of the sample before and after a surfactant treatment are measured by the method described in Section B above. […] In this manner, surfactant resistance is evaluated.
Using a recombinant plasmid containing CcFX gene (SEQ ID NO: 55) as a starting plasmid, various variants were produced as in the procedures described in (1) and (2) above in Escherichia coli strain JM109 (pKK223-3-CcFX) having the plasmid. […] Subsequently, the surfactant resistance of the modified amadoriases was evaluated according to the measurement method for surfactant resistance described in (4) although under surfactant treatment conditions in which the amadoriases were each diluted in a 20 mM potassium phosphate buffer solution (pH 7.0) and mixed with 0.01% CTAC. […]

[4] = Buffer Solution 50 mM, pH 7.0 (citrate pH 6.0)
[5] = Buffer Solution 100 mM, pH 7.0 (citrate pH 6.0)

Molecule	CFP-T7 Residual Activity (%) (CFP-T7 [1]; [4])	CFP-T7 Residual Activity (%) (CFP-T7 [1]; [5])	CFP-T7 Residual Activity (%) (CFP-T7 [1]; Buffer Solution 150 mM, pH 7.0)	CFP-T7 Residual Activity (%) (CFP-T7 [1]; Buffer Solution 300 mM, pH 7.0)	CFP-T7 Residual Activity (%) (CFP-T7 [2]; Stabilizer 10 mM, Table 9-1)	CFP-T7 Residual Activity (%) (CFP-T7 [2]; Stabilizer 20 mM, Table 9-1)	PnFX Residual Activity (%) (PnFX; Stabilizer 5 mM)	CFP-D2 Residual Activity (%) (CFP-D2; Stabilizer 5 mM)	CFP-T7 Residual Activity (%) (CFP-T7 [2]; Stabilizer 2 mM, Table 9-1)	CFP-T7 Residual Activity (%) (CFP-T7 [2]; Stabilizer 5 mM, Table 9-1)	further results
O=S(=O)(O)CCN1CCOCC1 [MES, 2-(N-morpholino)ethanesulfonic acid]	14.3%	17.6%	62.9%	95.8%	19.5%	54.1%	–	–	–	–	PnFX Residual Activity (%) (PnFX; Stabilizer 20 mM): 89.6%; CFP-T7 Residual Activity (%) (CFP-T7 [2]; Stabilizer 40 mM, Table 9-1): 103.0%
O=S(=O)(O)CCCN1CCOCC1 [MOPS, 3-(N-morpholino)propanesulfonic acid]	–	–	–	–	–	–	–	–	–	–	CFP-D2 Residual Activity (%) (CFP-D2; Stabilizer 20 mM): 42.4%; CFP-T7 Residual Activity (%) (CFP-T7 [2]; Stabilizer 10 mM, Table 9-2): 6.5%; CFP-T7 Residual Activity (%) (CFP-T7 [2]; Stabilizer 20 mM, Table 9-2): 20.6%
O=C(O)CC(O)C(=O)O (centres unmarked) [Malate, malic acid]	–	–	–	–	74.3%	–	60.4%	59.2%	12.6%	35.4%	–
O=P(O)(O)O [Phosphate, phosphoric acid]	27.2%	68.3%	88.5%	98.4%	76.8%	98.6%	37.5%	72.8%	28.1%	61.6%	CFP-T7 Residual Activity (%) (CFP-T7 [1]; Buffer Solution 20 mM, pH 7.0 (citrate pH 6.0)): 15.1%; CFP-T7 Residual Activity (%) (CFP-T7 [2]; Stabilizer 50 mM, Table 9-1): 100.0%
B1	–	–	–	–	–	–	–	–	–	–	Residual Activity(%) [3]: 27.4%
